Measurements taken from the NIST ThermoML archive (doi:10.1021/je0496645).

Conditions: 101.33 kPa, Liquid; for viscosity: Capillary tube (Ostwald / Ubbelohde) method; for mass density: Vibrating tube method

CCCCC(CC)COP(=O)(O)OCC(CC)CCCC (stereo not given) [bis(2-ethylhexyl) hydrogen phosphate]
Conditions | mass density [kg/m3] | viscosity [mPa·s]
303.15 K | 964 | 21.22
313.15 K | 957 | 13.32
323.15 K | 949.5 | 8.559
333.15 K | 942 | 5.83
343.15 K | 934.5 | 4.089
